Laboratory results reported in patent US6028197A, “Dibenzo[a,g]quinolizinium derivatives and the salts thereof” (Hanwha Corporation, priority 1998, dated 2000).
Like-named read-outs stand apart in the source and are kept apart here.

Assays:
HepG2 cells = assay: Cholesterol biosynthesis in cultured human liver cell line ([1,2-14C]acetate incorporation); type: cell-based; settings: compared with AY9944 (comparative drug)
Procedure: Cultured human liver HepG2 cell line was grown on RPMI (Rosewell park Memorial Institute) 1640 culture medium containing 10% PBS until 60% of monolayer are formed in a 60 mm culture dish. After replacing the medium with 3 ml of a fresh culture medium containing 10% (v/v) LPDS (Fetal calf lipoprotein-deficient serum), the cells were further grown for 48 hours until 90% of cultivation degree appear The culture medium was removed and the cell was then washed with PBS. 2 ml of culture medium containing compound no. 2 (final concentration 100 μM) and AY-9944 (final concentration 1 μM) were added thereto. Then, the medium was cultivated at 37° C. for 1 hour under the condition of 95% air/5% carbonic acid gas. AY-9944 which is an inhibitor for sterol 7-reductase was used as a control drug for assuring the present experimental procedure on the inhibition of cholesterol biosynthesis. Thereafter, 3 μCi of [1,2-^14 C]acetate (72 mCi/mmol) were added thereto. The cultivation was continued for 2 hours so that the isotope is introduced into the cell and used as a precursor for sterol to be synthesized. Then, the culture medium was completely removed and washed with PBS twice and the cells were collected by scratching. 10 μg of cholesterol, 10 μg of lanosterol and [^3 H]cholesterol (30,000 dpm) were added thereto, and saponification reaction was carried out at 70° C. for an hour by adding 7.5% of methanolic KOH solution. Unsaponified sterol was removed by extracting them three times with 3 ml of petroleum ether and dried with nitrogen purging. The dried samples were redissolved in 200 μl of chloroform. An aliquot of the samples was loaded onto Silicagel 60F thin layer plate and then separated using ethyl acetate/hexane 25/75 (v/v) as the developing solvent. The thin layer film was developed by exposure to Amersham Hyperfilm at -70° C. for 7 days. Cholesterol band were confirmed by comparing the band appeared in the film and that appeared in the iodine-stained thin layer. After scratching the cholesterol band, it was quantified by a liquid scintillation counter.

Syrian Golden Hamster = assay: In vivo effect on plasma lipids in Syrian Golden Hamster; settings: for HDL cholesterol, change versus normal diet control / LDL cholesterol, change versus normal diet control / Total cholesterol, change versus normal diet control / Triglyceride, change versus normal diet control / HDL cholesterol / LDL cholesterol / Total cholesterol / Triglyceride: 0.3 mg/kg/day oral, 14 days; for total cholesterol, LDL-cholesterol, and triglyceride levels: compared with lovastatin; for HDL cholesterol / LDL cholesterol / Total cholesterol / Triglyceride: normal diet, plasma
Procedure: In order to investigate the effect of the compound of formula (I) of the invention, the compound was orally administered into male Syrian Golden Hamsters having weights of 90~110 g for two weeks and blood was then taken from each animal. Plasma lipids, i.e., total cholesterol, LDL-cholesterol,HDL-cholesterol and triglycerides were analyzed using an automatic analyzer (Automatic analyzer model Hitachi 7150).
Male Syrian Golden Hamsters weighing 90~110 g distributed from Samyuk Animal Laboratory, Seoul, Korea were bred under the following conditions: they were maintained under reverse light cycle (light cycle: from 6 P.M to 6 A.M; dark cycle: from 6 A.M. to 6 P.M.). The food and water were supplied at 10 A.M. The commercially available standard rodent chows were used. The hamsters were divided into 6 or 7 animals per group. The animals were fasted for 12 hours before administrating the drug. Then, 5,6-dihydrodibenzo[a,g]quinolizinium salts (compound no. 2) dissolved in a 0.25% methyl cellulose solution was administered orally for 14 days at the indicated time per a day. After fasting animals for 24 hours from the last administration, blood was extracted using a cardiac puncture and plasma was then isolated. Plasma lipids, i.e., total cholesterol, LDL-cholesterol, HDL-cholesterol and triglyceride values were analyzed using Automatic Analyzer (Hitachi 7150).

sterol 14-reductase = target: T1, sterol 14-reductase (Rattus norvegicus, UniProt A0ACM8Q6X4); assay: Inhibition of sterol 14-reductase in rat liver microsomes; type: biochemical
T1 construct: microsome which was used as an enzyme source of sterol 14-reductase; from tissue; host or cells: liver microsomes of male Sprague-Dawley rats fed lovastatin and cholestyramine
T1 sequence (A0ACM8Q6X4 1-418): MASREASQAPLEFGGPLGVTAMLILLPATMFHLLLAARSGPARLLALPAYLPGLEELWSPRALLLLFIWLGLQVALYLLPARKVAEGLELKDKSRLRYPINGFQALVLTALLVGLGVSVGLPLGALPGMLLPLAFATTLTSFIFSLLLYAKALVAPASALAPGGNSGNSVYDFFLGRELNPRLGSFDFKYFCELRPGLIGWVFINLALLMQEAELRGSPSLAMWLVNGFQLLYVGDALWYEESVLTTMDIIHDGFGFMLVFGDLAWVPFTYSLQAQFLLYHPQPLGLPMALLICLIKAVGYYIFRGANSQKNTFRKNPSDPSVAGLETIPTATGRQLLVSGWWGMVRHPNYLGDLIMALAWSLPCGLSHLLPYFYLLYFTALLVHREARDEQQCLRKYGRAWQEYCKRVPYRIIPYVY
Procedure: 20 Male Sprague-Dawley rats weighing from 150 to 250 g have been fed for 7 days with a diet containing 0.1% (w/w) Lovastatin and 5% (w/w) Cholestyramine. The animals were fasted for 12 hours before excising liver tissues and then sacrificed by decapitation at midnight. An aqueous solution containing 0.25M of sucrose was injected into the hepatic portal vein to remove all the blood within the liver, and then, the liver was excised. The liver was homogenated with two volumes of buffer solution A (0.1M potassium phosphate, 1 mM reduced glutathione, 0.5 mM EDTA, 20% (v/v) glycerol, pH 7.4) by repeating pestles over 10 times and then, centrifuged with 900×g for 5 minutes to give a supernatant. The supernatant was centrifuged with 12,000×g for 20 minutes. The supernatant obtained was ultracentrifuged with 105,000×g for 90 minutes to give a microsome which was used as an enzyme source of sterol 14-reductase. Assay for sterol 14-reductase was carried out as follows:
60 mmol of 4,4-dimethyl-5α-cholesta-7,14-dien-3β-ol and 5,6-dihydrodibenzo-[a,g]quinolizinium salts (compound no. 2) dissolved in DMSO were added to an assay mixture (total volume 1.0 ml) containing 2 mg of the microsomal protein, 2 mM of NADPH and 25 mg of glucose plus 20 units of glucose oxidase with preincubations under nitrogen at 37° C. for 4 min. unless otherwise specified to establish anaerobic condition. Buffer A (0.1M potassium phosphate buffer, pH 7.4, including 1 mM reduced glutathione, 0.5 mM EDTA, and 20% (v/v) glycerol) used for incubation had been equilibrated with nitrogen, and nitrogen was exchanged for air in all sealed reaction flasks prior to the start of incubations. Incubation of the complete mixture was carried out anaerobically in sealed flasks for 10 min at 37° C. unless otherwise indicated. Incubations were terminated by the addition of 1 ml of ethanolic KOH followed by heating under reflux for 10 min. Sterols were extracted four times with 4 ml of petroleum ether, and the solvent was evaporated to dryness under a nitrogen stream. The resulting residue was dissolved in 200-500 μl of n-hexane for quantification by GLC at high sensitive attenuation. The activity of sterol 14-reductase was determined with the amount of the substrate wherein the double bonds of 14-carbon were reduced (for the amount reduced by 1 mg of the microsome protein for 1 minute).

[1] = Acute oral toxicity in SD rats; type: in vivo; settings: rat, in vivo, po, rats
Procedure: (§1) Meanwhile, the toxicity of the compounds of the present invention was investigated as follows: i.e., the compounds were suspended into propylene glycol and then orally administered into each of 5 male and female SD rats at the age of 5-weeks that were fasted for 12 hours. Under the usual breeding conditions, general symptoms, weight change and lethal case of the above rats were monitored for two weeks. At the dose over 2,000 mg/kg of the compound nos. 2, 3, 9 and 68, general symptoms and the body weight change of the animals were normal and the lethal case was not observed.

SD rats = assay: Acute oral toxicity in SD rats; type: in vivo; settings: for general symptoms and the body weight change: oral dose over 2,000 mg/kg, monitored for two weeks; for lethal case: rat, in vivo
Procedure: as §1

[2] = read-out: Enzyme Activity (relative in vitro activity for sterol 14-reductase, IC50 class)

Row | Compound | inhibition of cholesterol biosynthesis in human HepG2 cell line (HepG2 cells) | HDL cholesterol, change versus normal diet control (Syrian Golden Hamster) | LDL cholesterol, change versus normal diet control (Syrian Golden Hamster) [%] | Total cholesterol, change versus normal diet control (Syrian Golden Hamster) [%] | Triglyceride, change versus normal diet control (Syrian Golden Hamster) [%] | total cholesterol, LDL-cholesterol, and triglyceride levels (Syrian Golden Hamster) | HDL cholesterol (Syrian Golden Hamster) [mg/dL] | LDL cholesterol (Syrian Golden Hamster) [mg/dL] | Total cholesterol (Syrian Golden Hamster) [mg/dL] | Triglyceride (Syrian Golden Hamster) [mg/dL] | IC50 (sterol 14-reductase; rat liver microsome, anaerobic, 10 min at 37° C., read-out: level of compound at which 50% of inhibition of the enzymatic activity was observed) [nM] | IC50 (sterol 14-reductase; [2]) [nM] | LD50 at 336 h ([1]; female) [mg/kg] | LD50 at 336 h ([1]; male) [mg/kg] | general symptoms and the body weight change (SD rats) | lethal case (SD rats)
1 | CCc1c2[n+](cc3c(OCc4ccc(C(C)(C)C)cc4)c(OC)ccc13)CCc1cc(OC)c(OC)cc1-2 [Compound No. 2, 5,6-dihydro-2,3-dimethoxybenzo[a]-9-[4-(tert-butyl)benzyloxy]-13-ethyl-10-methoxybenzo[g]quinolizinium chloride] | markedly inhibited | +11.4% | -16.0 | -11.5 | -14.6 | markedly decreased | 66.6 ± 7 | 31.0 ± 3 | 115.8 ± 8 | 67.8 ± 8 | 100 to 300 | < 1000 | > 2000 | > 2000 | normal | not observed
2 | CCc1c2[n+](cc3c(OCc4ccc(C(F)(F)F)cc4)c(OC)ccc13)CCc1cc(OC)c(OC)cc1-2 [Compound No. 9, 5,6-dihydro-2,3-dimethoxybenzo[a]-13-ethyl-10-methoxy-9-(4-trifluoromethyl)benzyloxybenzo[g]quinolizinium chloride] | markedly inhibited | -6.0% | -45.4 | -37.0 | -43.6 | markedly decreased | 56.2 ± 3.0 | 20.2 ± 2 | 82.4 ± 7 | 44.8 ± 5.5 |  | < 1000 | > 2000 | > 2500 | normal | not observed
3 | CCCOc1cc2c(cc1OCCC)-c1c(CC)c3ccc(OCCC)c(OCc4ccc(C(F)(F)F)cc4)c3c[n+]1CC2 [Compound No. 68, 5,6-dihydro-2,3-dipropoxybenzo[a]-13-ethyl-10-propoxy-9-(4-trifluoromethyl)benzyloxybenzo[g]quinolizinium chloride] | markedly inhibited | -2.0% | -41.1 | -33.1 | -43.1 | markedly decreased | 58.6 ± 3 | 21.8 ± 3 | 87.4 ± 6 | 45.2 ± 7 |  | < 1000 | > 3000 | > 3000 | normal | not observed
4 | CCc1c2[n+](cc3c(OCc4c(F)c(F)c(F)c(F)c4F)c(OC)ccc13)CCc1cc(OC)c(OC)cc1-2 [Compound No. 3, 5,6-dihydro-2,3-dimethoxybenzo[a]-13-ethyl-10-methoxy-9-(2,3,4,5,6-pentafluoro)benyloxybenzo[g]quinolizinium chloride] | markedly inhibited | +5.4% | -49.2 | -23.5 | -38.0 | markedly decreased | 63.0 ± 3.0 | 18.8 ± 2 | 89.0 ± 7 | 49.2 ± 6 |  | < 1000 | > 2000 | > 2000 | normal | not observed
